What follows are compounds tested against T1, α1G T-type calcium channel (Homo sapiens, UniProt O43497) (assay: T-type calcium channel activity by electrophysiological whole-cell patch-clamp technique). Conditions: HEK293 cells stably expressing α1G T-type calcium channels, inhibition of inward peak currents, test pulse −30 mV, holding −100 mV.
T1 construct: expressed in transfected cells; host or cells: HEK293 cells stably expressing α1G, selected with G-418; The cell line KCTC 10519BP is named only for the FDSS6000 screen
T1 sequence (O43497 whole entry): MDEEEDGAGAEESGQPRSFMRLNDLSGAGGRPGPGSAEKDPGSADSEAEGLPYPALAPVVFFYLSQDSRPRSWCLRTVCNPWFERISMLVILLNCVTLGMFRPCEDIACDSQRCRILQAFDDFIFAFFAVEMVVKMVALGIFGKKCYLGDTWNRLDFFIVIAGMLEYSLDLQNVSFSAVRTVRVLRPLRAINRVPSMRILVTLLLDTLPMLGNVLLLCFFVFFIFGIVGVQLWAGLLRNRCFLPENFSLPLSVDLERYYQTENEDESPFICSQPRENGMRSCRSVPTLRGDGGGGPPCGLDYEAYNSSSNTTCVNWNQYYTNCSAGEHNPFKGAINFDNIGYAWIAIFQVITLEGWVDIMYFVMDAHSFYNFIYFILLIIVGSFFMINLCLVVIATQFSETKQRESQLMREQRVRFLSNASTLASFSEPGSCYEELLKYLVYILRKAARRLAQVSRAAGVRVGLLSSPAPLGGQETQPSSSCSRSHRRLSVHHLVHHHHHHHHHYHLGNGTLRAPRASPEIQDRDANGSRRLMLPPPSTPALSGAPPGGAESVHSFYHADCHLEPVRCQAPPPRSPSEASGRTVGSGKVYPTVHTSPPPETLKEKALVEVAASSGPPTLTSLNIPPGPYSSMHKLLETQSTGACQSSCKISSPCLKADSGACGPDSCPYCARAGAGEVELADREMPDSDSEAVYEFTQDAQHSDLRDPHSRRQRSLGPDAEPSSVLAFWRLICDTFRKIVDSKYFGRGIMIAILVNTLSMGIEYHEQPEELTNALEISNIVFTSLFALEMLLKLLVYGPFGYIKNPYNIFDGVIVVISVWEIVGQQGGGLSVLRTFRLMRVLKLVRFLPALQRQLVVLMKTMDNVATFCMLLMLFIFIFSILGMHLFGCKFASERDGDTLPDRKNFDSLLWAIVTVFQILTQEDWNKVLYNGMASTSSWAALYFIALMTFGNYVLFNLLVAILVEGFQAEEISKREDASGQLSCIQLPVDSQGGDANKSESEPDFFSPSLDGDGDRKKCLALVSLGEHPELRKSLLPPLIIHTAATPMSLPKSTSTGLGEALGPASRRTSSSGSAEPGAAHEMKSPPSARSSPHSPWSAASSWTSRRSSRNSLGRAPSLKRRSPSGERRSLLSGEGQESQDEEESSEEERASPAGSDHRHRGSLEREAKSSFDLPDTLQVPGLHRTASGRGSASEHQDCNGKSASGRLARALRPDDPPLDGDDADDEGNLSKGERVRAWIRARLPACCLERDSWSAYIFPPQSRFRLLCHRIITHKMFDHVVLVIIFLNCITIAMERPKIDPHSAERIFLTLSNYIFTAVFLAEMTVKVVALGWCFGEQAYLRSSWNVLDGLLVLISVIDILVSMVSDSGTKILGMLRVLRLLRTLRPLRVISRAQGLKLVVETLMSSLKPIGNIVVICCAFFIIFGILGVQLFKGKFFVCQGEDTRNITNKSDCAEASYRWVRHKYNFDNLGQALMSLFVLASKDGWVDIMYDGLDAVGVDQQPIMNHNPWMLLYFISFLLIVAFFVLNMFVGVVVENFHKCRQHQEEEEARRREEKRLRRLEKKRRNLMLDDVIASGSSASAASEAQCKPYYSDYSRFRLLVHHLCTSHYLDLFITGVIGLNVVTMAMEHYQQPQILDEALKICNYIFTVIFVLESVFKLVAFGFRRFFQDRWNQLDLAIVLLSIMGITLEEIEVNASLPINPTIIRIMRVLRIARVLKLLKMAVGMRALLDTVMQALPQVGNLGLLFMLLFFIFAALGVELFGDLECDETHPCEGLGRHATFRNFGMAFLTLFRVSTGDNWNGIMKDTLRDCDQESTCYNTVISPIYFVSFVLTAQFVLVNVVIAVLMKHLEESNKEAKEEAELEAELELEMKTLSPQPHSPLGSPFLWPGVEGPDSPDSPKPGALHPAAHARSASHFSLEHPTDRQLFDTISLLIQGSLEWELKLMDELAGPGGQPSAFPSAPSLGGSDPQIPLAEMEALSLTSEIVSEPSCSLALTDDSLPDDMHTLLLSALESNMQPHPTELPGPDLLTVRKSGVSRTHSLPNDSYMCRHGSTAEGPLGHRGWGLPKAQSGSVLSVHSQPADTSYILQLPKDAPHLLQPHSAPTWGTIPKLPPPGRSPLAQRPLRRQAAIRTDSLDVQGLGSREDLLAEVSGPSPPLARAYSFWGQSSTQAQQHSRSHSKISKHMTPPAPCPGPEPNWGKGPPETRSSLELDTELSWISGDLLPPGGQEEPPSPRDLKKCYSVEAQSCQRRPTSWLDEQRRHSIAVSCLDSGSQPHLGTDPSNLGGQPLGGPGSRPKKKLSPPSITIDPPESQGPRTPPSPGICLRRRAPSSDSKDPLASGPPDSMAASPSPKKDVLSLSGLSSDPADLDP
Type: cell-based
Procedure: The novel compounds of the present invention represented by the above formula 1 were tested for their antagonistic activities with regard to T-type calcium channel as follows.
2) Methods for the Measurements of T-Type Calcium Channel Activity Using an Electrophysiological Whole-Cell Patch-Clamp Technique
HEK293 cells stably expressing T-type calcium channels were cultured in DMEM (Dulbecco's modified Eagle's medium) containing 10% (v/v) fetal bovine serum and 1% penicillin/streptomycin (v/v) in humidified 5% CO2 at 36.5° C. Cells expressing α1G T-type calcium channels were selected using G-418 (0.5 mg/mL) in the culture medium. The culture medium was replaced with a fresh one every 3-4 days, and cells were subcultured every week.
Cells were seeded on the coverglass coated with poly-L-lysine (0.5 mg/mL) for the measurements of T-type calcium channel activity 2-7 days prior to the recordings. Whole-cell recordings of T-type calcium channel currents were performed using an EPC-9 patch clamp amplifier (HEKA, Germany). Whole-cell currents were recorded using micropipettes with resistance of 3-4MΩ with the pipette (intracellular) solution containing (in mM): 130 KCl, 11 EGTA, 5 Mg-ATP, and 10 HEPES, pH to 7.4 and with the bath (extracellular) solution containing (in mM): 140 NaCl, 2 CaCl2, and 10 HEPES, pH to 7.4. The inward currents of T-type calcium channels were evoked by the test pulses of −30 mV for 50 ms at a holding potential of −100 mV every 10 seconds.
Each compound was dissolved in dimethylsulfoxide (DMSO) as 10 mM stock solutions and diluted in the bath solution to 10 μM (containing 0.1% DMSO). […] More specifically, each compound was perfused to the bath for about 30-60 seconds, and the inhibition of the inward peak currents by a test compound was calculated as a percent inhibition from which IC50 values were determined.

| Structure (SMILES) | IC50 |
| --- | --- |
| Cc1cc(CNC(=O)CN2CCN(C(c3ccccc3)c3ccccc3)CC2)nn1-c1ccccc1 [Compound No. 3, 3-[(4-benzhydrylpiperazin-1-yl)methylcarboxamido]methyl-5-methyl-1-phenyl-1H-pyrazole] | 1830 ± 120 nM |
| O=C(CN1CCN(c2ccccc2)CC1)NCc1cc(-c2ccco2)n(-c2ccccc2)n1 [Compound No. 11, 3-[(4-phenylpiperazin-1-yl)methylcarboxamido]methyl-5-furyl-1-phenyl-1H-pyrazole] | 2570 ± 170 nM |
| CC(C)Cc1cc(CNC(=O)CN2CCN(Cc3ccc(C(F)(F)F)cc3)CC2)nn1-c1ccccc1 [Compound No. 16, 3-{[4-(4-trifluoromethylbenzyl)piperazin-1-yl]methylcarboxamido}methyl-5-isobutyl-1-phenyl-1H-pyrazole] | 1770 ± 100 nM |
| CCCc1cc(CNC(=O)CN2CCN(c3ccccc3)CC2)nn1-c1ccccc1 [Compound No. 27, 3-[(4-phenylpiperazin-1-yl)methylcarboxamido}methyl-5-propyl-1-phenyl-1H-pyrazole] | 5100 ± 110 nM |
| CCCc1cc(CNC(=O)CN2CCN(Cc3ccc(C(F)(F)F)cc3)CC2)nn1-c1ccccc1 [Compound No. 32, 3-{[4-(4-trifluoromethyl)benzylpiperazin-1-yl]methylcarboxamido}methyl-5-propyl-1-phenyl-1H-pyrazole] | 1810 ± 90 nM |
| CCCc1cc(CNC(=O)CN2CCN(Cc3ccc4c(c3)OCO4)CC2)nn1-c1ccccc1 [Compound No. 33, 3-[(4-piperonylpiperazin-1-yl)methylcarboxamido]methyl-5-propyl-1-phenyl-1H-pyrazole] | 9560 ± 1420 nM |
| CC(C)Cc1cc(CNC(=O)CN2CCN(c3ccccn3)CC2)nn1-c1ccccc1 [Compound No. 36, 3-{[4-(2-pyridyl)piperazin-1-yl]methylcarboxamido}methyl-5-isobutyl-1-phenyl-1H-pyrazole] | 9420 ± 700 nM |
| CC(C)Cc1cc(CNCC(=O)N2CCN(Cc3ccc(Cl)c(Cl)c3)CC2)nn1-c1ccccc1 [Compound No. 75, 3-{[4-(3,4-dichlorobenzyl)piperazin-1-yl]carbonylmethylamino}methyl-5-isobutyl-1-phenyl-1H-pyrazole] | 300 ± 10 nM |

Continued by falling IC50, values first:

| IC50 | Structure (SMILES) |
| --- | --- |
| 3540 ± 90 nM | CC(C)Cc1cc(CNC(=O)CN2CCN(c3ccccc3)CC2)nn1-c1ccccc1 [Compound No. 9, 3-[(4-phenylpiperazin-1-yl)methylcarboxamido]methyl-5-isobutyl-1-phenyl-1H-pyrazole] |
| 3500 ± 350 nM | Cc1cc(CNCC(=O)N2CCN(C(c3ccccc3)c3ccccc3)CC2)nn1-c1ccccc1 [Compound No. 65, 3-[(4-benzhydrylpiperazin-1-yl)carbonylmethylamino]methyl-5-methyl-1-phenyl-1H-pyrazole] |
| 2060 ± 1200 nM | Cc1cccc(N2CCN(C(=O)CNCc3cc(C)n(-c4ccccc4)n3)CC2)c1C [Compound No. 64, 3-{[4-(2,3-dimethylphenyl)piperazin-1-yl]carbonylmethylamino}methyl-5-methyl-1-phenyl-1H-pyrazole] |
| 1420 ± 160 nM | Cc1cc(CNC(=O)CN2CCN(Cc3cccc(C(F)(F)F)c3)CC2)nn1-c1ccccc1 [Compound No. 5, 3-{[4-(3-trifluoromethyl)benzylpiperazin-1-yl]methylcarboxamido}methyl-5-methyl-1-phenyl-1H-pyrazole] |
| 1420 ± 160 nM | Cc1cc(CNC(=O)CN2CCN(Cc3ccc(Cl)c(Cl)c3)CC2)nn1-c1ccccc1 [Compound No. 6, 3-{[4-(3,4-dichlorobenzyl)piperazin-1-yl]methylcarboxamido}methyl-5-methyl-1-phenyl-1H-pyrazole] |
| 400 ± 40 nM | Cc1ccc(N2CCN(C(=O)CNCc3cc(CC(C)C)n(-c4ccccc4)n3)CC2)c(C)c1 [Compound No. 69, 3-{[4-(2,4-dimethylphenyl)piperazin-1-yl]carbonylmethylamino}methyl-5-isobutyl-1-phenyl-1H-pyrazole] |
| 360 ± 30 nM | Cc1cccc(N2CCN(C(=O)CNCc3cc(CC(C)C)n(-c4ccccc4)n3)CC2)c1C [Compound No. 76, 3-{[4-(2,3-dimethylphenyl)piperazin-1-yl]carbonylmethylamino}methyl-5-isobutyl-1-phenyl-1H-pyrazole] |
| 20 ± 10 nM | Cc1cccc(N2CCN(CC(=O)NCc3cc(C)n(-c4ccccc4)n3)CC2)c1C [Compound No. 1, 3-{[4-(2,3-dimethyl)phenylpiperazin-1-yl]methylcarboxamido}methyl-5-methyl-1-phenyl-1H-pyrazole] |

— patent US8299072B2, “Pyrazolylmethylamine compounds as calcium channel modulators and preparation method thereof” (Korea Institute of Science and Technology, priority 2008, dated 2012)
